Laboratory results taken from US11692160B2, “Microfluidic chip, three-dimensional channel structure, cell culture method using same, and activity evaluation method of bioactive substance using same” (THE ASAN FOUNDATION, priority 2016, dated 2023).

Experiments:
lung cancer cells (A549) = test: Evaluation of the pharmacological efficacy of an MMP-1 inhibitor using a microfluidic chip (lung cancer cell travel distance, vascular cell migration area); assay type: cell-based
Experimental: In order to evaluate the efficacy of an anticancer medicine using a microfluidic chip, lung cancer cells (A549, ATCC) were seeded into a microfluidic chip using the same method as in Example 1. Secondarily, vascular cells were seeded (day 0).

[1] = test system: pancreatic cancer cells (Mia Paca-2); test: Evaluation of the pharmacological efficacy of gemcitabine using a microfluidic chip (spread range of cancer cells); assay type: cell-based
Experimental: In order to evaluate the efficacy of an anticancer medicine using a microfluidic chip, pancreatic cancer cells (Mia Paca-2, ATCC) were seeded into a microfluidic chip using the same method as in Example 2. Secondarily, vascular cells (HUVEC, purchased from ATCC) were seeded. Once the cells were confirmed to be attached (day 0: cell seeding date), gemcitabine (Eli Lilly and Company, USA) was administered 3 days later to measure the spread range of the cancer cells. As shown in FIGS. 20A to 20C, the growth and development of cells were observed from the time of cell seeding (day 0) to the 7th day after the drug treatment (day 3). For observation of the cells, an optical microscope image (EVOS, LifeScience, 100 magnification) and a fluorescence microscope image (EVOS, LifeScience, 100 magnification) were superposed. FIGS. 20B and 20C show the results of observation of the cell development using an optical microscope and a fluorescence microscope. The eight images of FIG. 20B, labeled as normal cultures, were those treated with DMSO at day 3 and observed up to day 7. The eight pictures of FIG. 20C, labeled drug treatment, were those treated with gemcitabine on day 3 and observed up to day 7. FIG. 20A is a graph in which the growth width of the cancer cells was statistically quantified from FIGS. 20B and 20C using an Origin […] […]

[2] = A549 with vascular cells in microfluidic chip, inhibitor given 1 day after seeding, increasing concentration (10 μM, 50 μM, 100 μM)

Row | Structure (SMILES) | metastatic process of lung cancer cells (lung cancer cells (A549); A549 cultured in the cell culture device (microfluidic chip)) | migration area of the vascular cells (lung cancer cells (A549); [2]) | travel distance of the lung cancer cells (lung cancer cells (A549); [2]) | distribution area of the cancer cells ([1]; Mia Paca-2 co-seeded with HUVEC in microfluidic chip, drug on day 3, observed up to day 7, compared with cells not treated with gemcitabine (DMSO)) | growth of pancreatic cancer cells ([1]; Mia Paca-2 in microfluidic chip, gemcitabine on day 3, observed up to day 7)
1 | CNC(=O)[C@H](Cc1c[nH]c2ccccc12)NC(=O)[C@@H](CC(=O)NO)CC(C)C [MMP-1 inhibitor] | inhibits the metastatic process of lung cancer cells | reduced | gradually reduced | – | –
2 | Nc1ccn([C@@H]2O[C@H](CO)[C@@H](O)C2(F)F)c(=O)n1 [gemcitabine, 4-amino-1-(2-deoxy-2,2-difluoro-β-D-erythro-pentofuranosyl)pyrimidin-2(1H)-on] | – | – | – | decreased | inhibits the growth of pancreatic cancer cells
